{"source": "paper PMC12274739", "about": "“Differential substrate degradation by super-degron: EGFP in wild-type mouse cells, PD-1 requires CRBN humanization” (iScience, 2025)", "key": {"[1]": {"assay": "Histopathological examination of organs", "format": "in vivo, mouse", "conditions": "Pdcd1SD/SD/CrbnI391V/I391V mice with MC-38 inoculation and IBR treatment", "protocol": "The important functions of PD-1 are to suppress autoimmunity, and depletion or suppression of PD-1 leads to autoimmune diseases.[37]\nMice were sacrificed under deep anesthesia then all organs were isolated and immediately immersed in 10% buffered neutral formalin. After fixation for 48 h, tissues were processed as formalin-fixed paraffin-embedded blocks and sliced into 3 μmμ sections, followed by hematoxylin and eosin (HE) staining, periodic acid Schiff (PAS) staining, and Elastica-Masson Goldner staining. All slides were analyzed by a skilled pathologist (T.M.). Glomerular lesions were evaluated using the histological glomerular index, and other organs were scored from 0 (normal) to 3 (necrotic, severe organ injury).\nFigure S11 Histological analysis of super degron tag-knockin mice for autoimmune […]\nRepresentative histological manifestations of kidney (A-C), liver (D-F) and large intestine (G-I) of Pdcd1SD/SD/CrbnI391V/I391V mice (A, D and G), Pdcd1+/+/CrbnI391V/I391V mice (B, E and H) and […]\nLiver and large intestine manifested normal histological findings in each group (A-C: PAS stain, d-i: HE stain, Bar = 25 µm in A-C, 100 µm in D-I).\n(§1) (1 picture or pasted object on this page, not shown here)\nFigure S12 Glomerular index of super degron tag-knockin mice\nGlomerular index of each group of mice. […]\nhigher index nevertheless there were no statistically significant differences among"}, "mouse PD-1-SD": {"tested_on": "mouse PD-1-SD", "assay": "Linker evaluation of mouse PD-1-SD in Jurkat cells", "format": "cell-based, human", "conditions": "PD-1-SD with a linker, 1 µM iberdomide for 1 day", "text": "We used human Jurkat cells as it was difficult to accurately assess exogenous PD-1 expression, as EL4 cells originally expressed mouse PD-1. […] Therefore, the simplest “no linker” construct was adopted for in vivo protein knockdown in mice. Considering that fluorescent proteins affect the degradation efficiency of PD-1,[31] we decided to knock in without a fluorescent protein as a marker. SD was inserted downstream of the endogenous Pdcd1 gene (the gene encoding PD-1) in Crbn^I391V/I391V mice using genome editing (Figures 6A and S5), and double homozygous (Pdcd1^SD/SD/Crbn^I391V/I391V) mice were produced by intercrossing.\nFigure S4 Evaluation of linker sequences between PD-1 and super degron tag A Amino acid sequences of various linkers between PD-1 and super degron (SD) tag. Sequences […]\nwere measured by flow cytometry, and the geometric means of fluorescence intensities (MFI) were calculated. The dots indicate the results of the experiment for each of the three samples.\nas §1"}, "[2]": {"design": "method as in PMID 32969202", "conditions": "humans, cited from earlier work"}, "[3]": {"tested_on": "mouse PD-1-mCherry-IKZF minimal tag", "assay": "Degradation of IKZF minimal-tagged mouse PD-1-mCherry in Jurkat cells", "format": "cell-based, human", "conditions": "24 h", "text": "To identify a tag that could efficiently knock down mouse PD-1, we connected various degron tags to the C-terminus of PD-1, including IKZF1/3, Sall4, ZFP91, and SD, and generated Jurkat human T cell lymphoma cell lines that stably expressed the mouse PD-1-degron tag (Figure 1A). As reported previously,[21]^,[22]^,[23] in mouse CRBN, the 391st amino acid corresponding to Val-388 of human CRBN is Ile, which causes a protrusion when a neo substrate binds to CRBN, resulting in a weaker affinity than in human CRBN (Figure 1B). Therefore, a human cell line was used because it was thought that mouse CRBN would not degrade SD by thalidomide analogs. […] We also analyzed the degradation of total proteins using mCherry.\nFigure 1 Degradation of various degron-tagged mouse PD-1 in human Jurkat cell line (A) The protein construction of PD-1 tagged with mCherry and a degron tag. […] Valine 388 in human CRBN (red on the left) is replaced by isoleucine in mouse CRBN (gray on the right, over the red valine), causing a conflict between CRBN and IKZF1/3 (yellow ellipse). The stretch of the methyl group in isoleucine causing the conflict is indicated by a yellow arrow. (C) The amount of PD-1 and mCherry fused to IKZF minimal (blue, n = 1), IKZF full length (light blue, n = 1), Sall4 (orange, n = 1) or super degron (SD; red, n = 3) tags in Jurkat human T cell lymphomas 24 h after the addition of pomalidomide (POM) measured by flow cytometry. […] (C and D) The amount was standardized with the sample to which no reagent was added as 1. Concentrations of reagents were 0 (−), 5, 10, and 20 μM for IKZF minimal, IKZF full-length, and Sall4 tags and 0 (−), 0.5, 5 μM for SD tag. The dots indicate the results of the experiment for each of samples."}, "[4]": {"tested_on": "Ba/F3 mouse pro-B cell line", "design": "method as in PMID 38484051", "conditions": "cited from earlier work"}}, "note": "Several values for one entry are separate records, joined by “and”; a condition that tells them apart may be missing. Equal values may be shown once.", "data": [{"smiles": "O=C1CC[C@H](N2Cc3c(OCc4ccc(CN5CCOCC5)cc4)cccc3C2=O)C(=O)N1", "note": "[IBR, iberdomide]", "values": [{"measurement": "histopathological organ injury", "setting": "[1]", "value": "no significant organ injury"}, {"measurement": "PD-1 expression", "setting": "mouse PD-1-SD", "value": "significantly reduced"}, {"measurement": "IBR present after 24 h, of the maximum concentration", "setting": "[2]; multiple doses", "value": "about 20%"}, {"measurement": "time of serum concentration peak", "setting": "[2]; oral, single and multiple once-daily doses", "value": 3, "unit": "h"}, {"measurement": "serum concentration with multiple doses compared to a single dose", "setting": "[2]", "value": "doubles"}]}, {"smiles": "Nc1cccc2c1C(=O)N(C1CCC(=O)NC1=O)C2=O", "note": "(stereo not shown) [POM, pomalidomide]", "values": [{"measurement": "LogDC50, mCherry (mC)", "setting": "[3]; mCherry", "value": 0.04896, "unit": "µM"}, {"measurement": "Bottom, mCherry (mC)", "setting": "[3]; mCherry, no reagent = 1", "value": 0.8201}, {"measurement": "LogDC50, PD-1 (FITC)", "setting": "[3]; surface PD-1", "value": 0.1515, "unit": "µM"}, {"measurement": "Bottom, PD-1 (FITC)", "setting": "[3]; surface PD-1, no reagent = 1", "value": "0.53 and 0.5295"}, {"measurement": "proteins reduced", "setting": "[4]", "value": "very few proteins"}]}]}
